A melting point compilation (Tetko et al.; mined from patent text by program, amines drawn as free bases though some values may be those of a salt)

| SMILES | melting point |
| --- | --- |
| [N-]=[N+]=NCC1OC(n2c(N=[N+]=[N-])nc3c(N)ncnc32)C(O)C1O (stereo unspecified) | 128 to 130 °C |
| CC1c2cc(C(C)(C)C)cc(C(C)(C)C)c2OP(OCCNC(C)(C)C)Oc2c1cc(C(C)(C)C)cc2C(C)(C)C (stereo unspecified) | 174 to 175 °C |
| CCC12CCC3C4CCC(=O)C=C4CCC3C1CCC2OC(=O)CCC1CCCC1 (stereo unspecified) | 88 to 89 °C |
| CCCC(=NOCC)C1=C(O)CC(c2c(C)c(C)c(C)c3cc(C(C)=O)oc23)CC1=O (stereo unspecified) | 154 °C |
| CN(C)C1CC2(C)C(=O)CCC2C2CCC3CC(O)CCC3(C)C21 (stereo unspecified) | 135 to 136 °C |
| CC(=O)Sc1cccs1 | 112 to 114 °C |
| O=c1[nH]c(F)c(Cl)c(Cl)c1Cl | 172 to 176 °C |
| COc1cc(OC)c2c3c(oc2c1)CC(C(=O)O)CC3 (stereo unspecified) | 194 to 196 °C |
| CC1CN(c2cccc(Cl)n2)N=C1N (stereo unspecified) | 175 to 176 °C |
| CCn1c(C)nc2cc(C(F)(F)F)c(Cl)c(N)c21 | 176 to 178 °C |
| N#CC1(c2nnn[nH]2)CCCC1 | 92 to 94 °C |
| COC(=O)c1cc(N)cc(C=NO)c1 | 160 to 162 °C |
| N#C[C@@H]1C[C@H](F)CN1C(=O)CCl | 97 to 100 °C |
| COc1ccc2c(c1)CN(C#N)CC2c1cc(OC)c(OC)c(OC)c1 (stereo unspecified) | 113 to 116 °C |
| CN(C)N=Nc1ccsc1C(=O)O | 108 to 110 °C |
| COc1ccc(C2(C#N)CCC(=O)CC2)c2nc(C(C)C)oc12 | 118 °C |
| C=C(c1cn(-c2c(Cl)cc(C(F)(F)F)cc2Cl)nc1C#N)C(F)(F)Cl | 113 to 114 °C |
| O=C(O)c1cc(SCCO)ccc1O | 136 °C |
| CCc1cc(OC)c(O)c([N+](=O)[O-])c1 | 59 to 61 °C |

Second part, the compound after the results:

| melting point | SMILES |
| --- | --- |
| 229 to 234 °C | O=C(Nc1c(C(=O)c2ccccc2)[nH]c2cc(Cl)ccc12)c1ccccc1Cl |
| 160 °C | COc1cc(C=CC(=O)c2ccccc2N(C)C)cc(OC)c1 |
| 178 to 181 °C | O=C(O)COc1ccc2cc(-c3oc4ccccc4c3C(=O)c3ccccc3)ccc2c1 |
| 82.5 to 83 °C | COc1ccc(C(O)c2ccccc2)cc1OC1CCCC1 (stereo unspecified) |
| 129 to 131 °C | O=C(O)COc1cccc2c1OCc1sc(SC(c3ccccc3)c3ccccc3)nc1-2 |
| 51 to 52 °C | Clc1ccccc1C1=NOCCS1 |
| 80 to 82 °C | CN1CC(Cc2ccccc2)OC1=O (stereo unspecified) |
| 205 to 206 °C | CC(C)(C)c1cc(CC#Cc2ccc(C(=O)O)c(O)c2)cc(C(C)(C)C)c1O |
| 170 to 171 °C | Cc1cccc(N(c2ccccc2)c2ccc(N(c3ccccc3)c3cccc(C)c3)cc2)c1 |
| 198 to 200 °C | CCNC(=O)Nc1ccc(-c2nc3n(Cc4c(F)cccc4F)cc(C(=O)OC(C)C)c(=O)n3c2CN(C)Cc2ccccc2)cc1 |
| 145 to 146 °C | c1ccc2c(c1)-c1ccccc1C2Cc1nc(COc2ccc(CCCn3ccnc3)cc2)co1 |
| > 400 °C | Cc1nc2ccc3c(c2nc1C)C(=O)c1ccccc1C3=O |
| 220 to 222 °C | Nc1cccc(Cl)c1-c1nc(-c2ccncc2)c(-c2ccc(Cl)cc2)[nH]1 |
| 184 to 185 °C | O=C(CCl)Nc1ccc2c(c1NC(=O)Cc1ccccc1)C(=O)c1ccccc1C2=O |
| 175 to 176 °C | CCNCC(=O)N1c2ccccc2NC(=O)c2c1c(C)cn2C |
| 228 to 231 °C | O=C(Nc1ccc(F)cc1)N[C@H]1CCCN(C(=O)c2ccc(F)cc2)C1 |
| 85 to 87 °C | COc1cc(C=CC(=O)COc2ccccc2)ccc1O |
| 89 to 99 °C | Fc1cccc(C=Cc2nccc3ccccc23)c1 |
| 125 to 127 °C | CCCCCc1ccc(Oc2cccc(C=C3SC(=S)NC3=O)c2)cc1 |
| 175 to 176 °C | CCC(=O)OC(C)c1ccc(-c2ccc(C(=O)O)cc2)cc1 (single isomer, unassigned; (+)) |
| 126 to 128 °C | Nc1ccccc1C(=O)NCCc1cccnc1 |
| 66 to 68 °C | S=C(Nc1cccc2c1[nH]c1ccccc12)SCc1ccccc1 |
